Reference: the supplement of paper PMC10307832

Assays:
Test in all cases: relative viability (nuclei count vs DMSO), 5 days (fraction); higher = more cells survive
AZD8055 = compound: COc1ccc(-c2ccc3c(N4CCOC[C@@H]4C)nc(N4CCOC[C@@H]4C)nc3n2)cc1CO [AZD8055]
How it was run: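 On vehicle-anchored 1536-well plates, lung cancer cell lines held overnight at 37 °C were pinned with five library-drug doses (not always all listed) spaced by √10. With no medium change over 5 days, they were then fixed, permeabilised and Hoechst-stained in one step and imaged at 4×. MetaXpress counted nuclei, and viability is the median across plates of treated-well over vehicle-well nuclei. Acceptance needed control CV below 25% and at least one doubling.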

AZD8055 + Vorinostat = compound: COc1ccc(-c2ccc3c(N4CCOC[C@@H]4C)nc(N4CCOC[C@@H]4C)nc3n2)cc1CO [AZD8055] + O=C(CCCCCCC(=O)Nc1ccccc1)NO [Vorinostat] (partner 1 µM)
How it was run: (§1)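 One day after seeding in 1536-well plates, lung cancer cell lines were dosed by pin tool. Dosing was either single-drug or a fixed anchor-drug dose plus five library-drug doses (not always all listed) in √10 steps. After 5 days, nuclei were stained in one fix-and-stain step and counted on 4× images, and relative viability is the nuclei count of treated wells over that of vehicle wells, given as the median of duplicate plates.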

AZD8055 + Palbociclib = compound: COc1ccc(-c2ccc3c(N4CCOC[C@@H]4C)nc(N4CCOC[C@@H]4C)nc3n2)cc1CO [AZD8055] + CC(=O)c1c(C)c2cnc(Nc3ccc(N4CCNCC4)cn3)nc2n(C2CCCC2)c1=O [Palbociclib] (partner 0.5 µM)
How it was run: as §1

AZD8055 + Trametinib = compound: COc1ccc(-c2ccc3c(N4CCOC[C@@H]4C)nc(N4CCOC[C@@H]4C)nc3n2)cc1CO [AZD8055] + CC(=O)Nc1cccc(-n2c(=O)n(C3CC3)c(=O)c3c(Nc4ccc(I)cc4F)n(C)c(=O)c(C)c32)c1 [Trametinib] (partner 0.02 µM)
How it was run: as §1

AZD8055 + Tozasertib = compound: COc1ccc(-c2ccc3c(N4CCOC[C@@H]4C)nc(N4CCOC[C@@H]4C)nc3n2)cc1CO [AZD8055] + Cc1cc(Nc2cc(N3CCN(C)CC3)nc(Sc3ccc(NC(=O)C4CC4)cc3)n2)n[nH]1 [Tozasertib] (partner 0.1 µM)
How it was run: as §1

AZD8055 + AZD7762 = compound: COc1ccc(-c2ccc3c(N4CCOC[C@@H]4C)nc(N4CCOC[C@@H]4C)nc3n2)cc1CO [AZD8055] + NC(=O)Nc1cc(-c2cccc(F)c2)sc1C(=O)N[C@H]1CCCNC1 [AZD7762] (partner 0.2 µM)
How it was run: as §1

AZD8055 + Luminespib = compound: COc1ccc(-c2ccc3c(N4CCOC[C@@H]4C)nc(N4CCOC[C@@H]4C)nc3n2)cc1CO [AZD8055] + CCNC(=O)c1noc(-c2cc(C(C)C)c(O)cc2O)c1-c1ccc(CN2CCOCC2)cc1 [Luminespib] (partner 0.01 µM)
How it was run: as §1

AZD8055 + OSI-027 = compound: COc1ccc(-c2ccc3c(N4CCOC[C@@H]4C)nc(N4CCOC[C@@H]4C)nc3n2)cc1CO [AZD8055] + COc1cccc2cc(-c3nc([C@H]4CC[C@H](C(=O)O)CC4)n4ncnc(N)c34)[nH]c12 [OSI-027] (partner 0.5 µM)
How it was run: as §1

AZD8055 + Olaparib = compound: COc1ccc(-c2ccc3c(N4CCOC[C@@H]4C)nc(N4CCOC[C@@H]4C)nc3n2)cc1CO [AZD8055] + O=C(c1cc(Cc2n[nH]c(=O)c3ccccc23)ccc1F)N1CCN(C(=O)C2CC2)CC1 [Olaparib] (partner 8 µM)
How it was run: as §1

AZD8055 + Pemetrexed = compound: COc1ccc(-c2ccc3c(N4CCOC[C@@H]4C)nc(N4CCOC[C@@H]4C)nc3n2)cc1CO [AZD8055] + Nc1nc2[nH]cc(CCc3ccc(C(=O)N[C@@H](CCC(=O)O)C(=O)O)cc3)c2c(=O)[nH]1 [Pemetrexed] (partner 0.2 µM)
How it was run: as §1

AZD8055 + Foretinib = compound: COc1ccc(-c2ccc3c(N4CCOC[C@@H]4C)nc(N4CCOC[C@@H]4C)nc3n2)cc1CO [AZD8055] + COc1cc2c(Oc3ccc(NC(=O)C4(C(=O)Nc5ccc(F)cc5)CC4)cc3F)ccnc2cc1OCCCN1CCOCC1 [Foretinib] (partner 0.25 µM)
How it was run: as §1

AZD8055 + Phenformin = compound: COc1ccc(-c2ccc3c(N4CCOC[C@@H]4C)nc(N4CCOC[C@@H]4C)nc3n2)cc1CO [AZD8055] + N=C(N)NC(=N)NCCc1ccccc1 [Phenformin] (partner 250 µM)
How it was run: as §1

AZD8055 + Decitabine = compound: COc1ccc(-c2ccc3c(N4CCOC[C@@H]4C)nc(N4CCOC[C@@H]4C)nc3n2)cc1CO [AZD8055] + Nc1ncn([C@H]2C[C@H](O)[C@@H](CO)O2)c(=O)n1 [Decitabine] (partner 2 µM)
How it was run: as §1

AZD8055 + Dasatinib = compound: COc1ccc(-c2ccc3c(N4CCOC[C@@H]4C)nc(N4CCOC[C@@H]4C)nc3n2)cc1CO [AZD8055] + Cc1nc(Nc2ncc(C(=O)Nc3c(C)cccc3Cl)s2)cc(N2CCN(CCO)CC2)n1 [Dasatinib] (partner 0.075 µM)
How it was run: as §1

Cell Line: NCI-H2342
- relative viability (AZD8055; 0.01 µM): 1.19
- relative viability (AZD8055; 0.03162 µM): 0.881
- relative viability (AZD8055; 0.1 µM): 0.735
- relative viability (AZD8055; 0.3162 µM): 0.476
- relative viability (AZD8055; 1 µM): 0.572
- relative viability (AZD8055 + Vorinostat; first compound 0.01 µM): 0.766
- relative viability (AZD8055 + Vorinostat; first compound 0.03162 µM): 0.702
- relative viability (AZD8055 + Vorinostat; first compound 0.1 µM): 0.651
- relative viability (AZD8055 + Vorinostat; first compound 0.3162 µM): 0.501
- relative viability (AZD8055 + Vorinostat; first compound 1 µM): 0.53
- relative viability (AZD8055 + Palbociclib; first compound 0.01 µM): 0.489
- relative viability (AZD8055 + Palbociclib; first compound 0.03162 µM): 0.537
- relative viability (AZD8055 + Palbociclib; first compound 0.1 µM): 0.458
- relative viability (AZD8055 + Palbociclib; first compound 0.3162 µM): 0.473
- relative viability (AZD8055 + Palbociclib; first compound 1 µM): 0.426
- relative viability (AZD8055 + Trametinib; first compound 0.01 µM): 0.894
- relative viability (AZD8055 + Trametinib; first compound 0.03162 µM): 0.731
- relative viability (AZD8055 + Trametinib; first compound 0.1 µM): 0.598
- relative viability (AZD8055 + Trametinib; first compound 0.3162 µM): 0.552
- relative viability (AZD8055 + Trametinib; first compound 1 µM): 0.525
- relative viability (AZD8055 + Tozasertib; first compound 0.01 µM): 0.477
- relative viability (AZD8055 + Tozasertib; first compound 0.03162 µM): 0.423
- relative viability (AZD8055 + Tozasertib; first compound 0.1 µM): 0.395
- relative viability (AZD8055 + Tozasertib; first compound 0.3162 µM): 0.345
- relative viability (AZD8055 + Tozasertib; first compound 1 µM): 0.371
- relative viability (AZD8055 + AZD7762; first compound 0.01 µM): 0.422
- relative viability (AZD8055 + AZD7762; first compound 0.03162 µM): 0.459
- relative viability (AZD8055 + AZD7762; first compound 0.1 µM): 0.308
- relative viability (AZD8055 + AZD7762; first compound 0.3162 µM): 0.376
- relative viability (AZD8055 + AZD7762; first compound 1 µM): 0.43
- relative viability (AZD8055 + Luminespib; first compound 0.01 µM): 0.579
- relative viability (AZD8055 + Luminespib; first compound 0.03162 µM): 0.535
- relative viability (AZD8055 + Luminespib; first compound 0.1 µM): 0.599
- relative viability (AZD8055 + Luminespib; first compound 0.3162 µM): 0.419
- relative viability (AZD8055 + Luminespib; first compound 1 µM): 0.424
- relative viability (AZD8055 + OSI-027; first compound 0.01 µM): 0.598
- relative viability (AZD8055 + OSI-027; first compound 0.03162 µM): 0.621
- relative viability (AZD8055 + OSI-027; first compound 0.1 µM): 0.571
- relative viability (AZD8055 + OSI-027; first compound 0.3162 µM): 0.529
- relative viability (AZD8055 + OSI-027; first compound 1 µM): 0.594
- relative viability (AZD8055 + Olaparib; first compound 0.01 µM): 0.376
- relative viability (AZD8055 + Olaparib; first compound 0.03162 µM): 0.439
- relative viability (AZD8055 + Olaparib; first compound 0.1 µM): 0.362
- relative viability (AZD8055 + Olaparib; first compound 0.3162 µM): 0.309
- relative viability (AZD8055 + Olaparib; first compound 1 µM): 0.289
- relative viability (AZD8055 + Pemetrexed; first compound 0.01 µM): 0.748
- relative viability (AZD8055 + Pemetrexed; first compound 0.03162 µM): 0.785
- relative viability (AZD8055 + Pemetrexed; first compound 0.1 µM): 0.542
- relative viability (AZD8055 + Pemetrexed; first compound 0.3162 µM): 0.49
- relative viability (AZD8055 + Pemetrexed; first compound 1 µM): 0.549
- relative viability (AZD8055 + Foretinib; first compound 0.01 µM): 0.999
- relative viability (AZD8055 + Foretinib; first compound 0.03162 µM): 1.05
- relative viability (AZD8055 + Foretinib; first compound 0.1 µM): 0.801
- relative viability (AZD8055 + Foretinib; first compound 0.3162 µM): 0.538
- relative viability (AZD8055 + Foretinib; first compound 1 µM): 0.578
- relative viability (AZD8055 + Phenformin; first compound 0.01 µM): 0.609
- relative viability (AZD8055 + Phenformin; first compound 0.03162 µM): 0.495
- relative viability (AZD8055 + Phenformin; first compound 0.1 µM): 0.429
- relative viability (AZD8055 + Phenformin; first compound 0.3162 µM): 0.394
- relative viability (AZD8055 + Phenformin; first compound 1 µM): 0.437
- relative viability (AZD8055 + Decitabine; first compound 0.01 µM): 0.741
- relative viability (AZD8055 + Decitabine; first compound 0.03162 µM): 0.653
- relative viability (AZD8055 + Decitabine; first compound 0.1 µM): 0.668
- relative viability (AZD8055 + Decitabine; first compound 0.3162 µM): 0.668
- relative viability (AZD8055 + Decitabine; first compound 1 µM): 0.504
- relative viability (AZD8055 + Dasatinib; first compound 0.01 µM): 0.316
- relative viability (AZD8055 + Dasatinib; first compound 0.03162 µM): 0.288
- relative viability (AZD8055 + Dasatinib; first compound 0.1 µM): 0.268
- relative viability (AZD8055 + Dasatinib; first compound 0.3162 µM): 0.293
- relative viability (AZD8055 + Dasatinib; first compound 1 µM): 0.304

Cell Line: NCI-H1623
- relative viability (AZD8055; 0.01 µM): 0.916
- relative viability (AZD8055; 0.03162 µM): 1.03
- relative viability (AZD8055; 0.1 µM): 0.79
- relative viability (AZD8055; 0.3162 µM): 0.469
- relative viability (AZD8055; 1 µM): 0.36
- relative viability (AZD8055 + Tozasertib; first compound 0.01 µM): 0.46
- relative viability (AZD8055 + Tozasertib; first compound 0.03162 µM): 0.47
- relative viability (AZD8055 + Tozasertib; first compound 0.1 µM): 0.397
- relative viability (AZD8055 + Tozasertib; first compound 0.3162 µM): 0.254
- relative viability (AZD8055 + Tozasertib; first compound 1 µM): 0.288
- relative viability (AZD8055 + Luminespib; first compound 0.01 µM): 0.483
- relative viability (AZD8055 + Luminespib; first compound 0.03162 µM): 0.434
- relative viability (AZD8055 + Luminespib; first compound 0.1 µM): 0.343
- relative viability (AZD8055 + Luminespib; first compound 0.3162 µM): 0.347
- relative viability (AZD8055 + Luminespib; first compound 1 µM): 0.278
- relative viability (AZD8055 + OSI-027; first compound 0.01 µM): 0.419
- relative viability (AZD8055 + OSI-027; first compound 0.03162 µM): 0.521
- relative viability (AZD8055 + OSI-027; first compound 0.1 µM): 0.425
- relative viability (AZD8055 + OSI-027; first compound 0.3162 µM): 0.411
- relative viability (AZD8055 + OSI-027; first compound 1 µM): 0.379
- relative viability (AZD8055 + Foretinib; first compound 0.01 µM): 0.885
- relative viability (AZD8055 + Foretinib; first compound 0.03162 µM): 1.03
- relative viability (AZD8055 + Foretinib; first compound 0.1 µM): 0.578
- relative viability (AZD8055 + Foretinib; first compound 0.3162 µM): 0.438
- relative viability (AZD8055 + Foretinib; first compound 1 µM): 0.381
- relative viability (AZD8055 + Phenformin; first compound 0.01 µM): 0.586
- relative viability (AZD8055 + Phenformin; first compound 0.03162 µM): 0.597
- relative viability (AZD8055 + Phenformin; first compound 0.1 µM): 0.521
- relative viability (AZD8055 + Phenformin; first compound 0.3162 µM): 0.324
- relative viability (AZD8055 + Phenformin; first compound 1 µM): 0.316
- relative viability (AZD8055 + Dasatinib; first compound 0.01 µM): 0.545
- relative viability (AZD8055 + Dasatinib; first compound 0.03162 µM): 0.584
- relative viability (AZD8055 + Dasatinib; first compound 0.1 µM): 0.412
- relative viability (AZD8055 + Dasatinib; first compound 0.3162 µM): 0.29
- relative viability (AZD8055 + Dasatinib; first compound 1 µM): 0.234
